According to ChEMBL document CHEMBL3301458, “MMV Malaria Box hERG screening”:
Calls of active or inactive are those of the source. How the calls were made is not given here.

Key:
hERG (Kv11.1, KCNH2) [1] = biological target: T1, hERG (Kv11.1, KCNH2) (Homo sapiens, UniProt Q12809); assay: in vitro
Description: MMV: Malaria Box compounds were tested for inhibition of the human ether a go-go related gene (hERG), Kv11.1 channel, using IonWorks 384-well patch clamp electrophysiology at 1.1uM (3 independent assay plates up to 12 cells per concentration).

hERG (Kv11.1, KCNH2) [2] = biological target: T1, hERG (Kv11.1, KCNH2); assay: in vitro; remark: listed apart in the source
Description: MMV: Malaria Box compounds were tested for inhibition of the human ether a go-go related gene (hERG), Kv11.1 channel, using IonWorks 384-well patch clamp electrophysiology at 11.1uM (3 independent assay plates up to 12 cells per concentration).

T1 sequence (Q12809 whole entry): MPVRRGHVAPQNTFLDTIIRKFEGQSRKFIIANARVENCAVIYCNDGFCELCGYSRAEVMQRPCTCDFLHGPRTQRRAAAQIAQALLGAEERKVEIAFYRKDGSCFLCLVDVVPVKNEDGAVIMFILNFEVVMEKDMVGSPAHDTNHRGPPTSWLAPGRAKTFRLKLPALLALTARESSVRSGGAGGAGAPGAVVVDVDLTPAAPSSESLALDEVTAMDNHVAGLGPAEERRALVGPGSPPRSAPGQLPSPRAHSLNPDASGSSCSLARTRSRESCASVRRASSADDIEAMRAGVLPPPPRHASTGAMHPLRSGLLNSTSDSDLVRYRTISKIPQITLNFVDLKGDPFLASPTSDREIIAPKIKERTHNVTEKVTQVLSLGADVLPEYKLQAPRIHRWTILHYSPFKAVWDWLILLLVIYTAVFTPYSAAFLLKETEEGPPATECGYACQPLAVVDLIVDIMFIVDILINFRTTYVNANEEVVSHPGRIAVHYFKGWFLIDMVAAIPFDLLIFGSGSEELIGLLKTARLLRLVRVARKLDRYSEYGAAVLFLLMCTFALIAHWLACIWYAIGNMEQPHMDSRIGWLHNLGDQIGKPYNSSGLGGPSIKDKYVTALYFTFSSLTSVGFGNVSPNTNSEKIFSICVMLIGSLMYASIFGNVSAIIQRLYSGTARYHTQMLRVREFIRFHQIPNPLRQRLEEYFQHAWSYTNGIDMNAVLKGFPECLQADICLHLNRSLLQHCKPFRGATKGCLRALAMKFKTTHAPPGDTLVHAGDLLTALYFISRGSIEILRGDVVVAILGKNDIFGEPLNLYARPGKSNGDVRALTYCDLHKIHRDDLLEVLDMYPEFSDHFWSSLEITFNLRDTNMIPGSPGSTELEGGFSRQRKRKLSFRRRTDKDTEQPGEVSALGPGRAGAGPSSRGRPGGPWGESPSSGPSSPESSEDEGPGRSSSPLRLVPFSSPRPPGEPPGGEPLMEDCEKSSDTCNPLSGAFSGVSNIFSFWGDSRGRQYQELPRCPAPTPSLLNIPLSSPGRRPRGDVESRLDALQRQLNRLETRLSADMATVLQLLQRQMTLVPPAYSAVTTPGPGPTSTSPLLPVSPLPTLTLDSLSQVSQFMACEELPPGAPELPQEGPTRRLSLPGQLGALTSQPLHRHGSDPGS

SMILES	inhibition at 1.1 µM (hERG (Kv11.1, KCNH2) [1]) [%]	inhibition at 11.1 µM (hERG (Kv11.1, KCNH2) [2])
CN1CCN(c2ccc(Nc3c4ccccc4nc4ccccc34)cc2)CC1	24	75% (active)
c1ccc(/C2=N/c3ccccc3/N=C(/c3ccccc3)c3ccccc32)cc1	7	3% (inactive)
CCN(CC)CCNc1ccnc2cc(Cl)ccc12	18	61% (active)
O=C(Nc1ccc(Br)cc1)Nc1cccc(Cl)c1	-5	11% (inactive)
CN(C)CCNc1cc(-c2ccccc2)nc2ccccc12	20	66% (active)
Cc1cc(NCCN2CCCCC2)c2ccc3ccccc3c2n1	32	95% (active)
O=C(NCc1ccco1)C1CCN(S(=O)(=O)c2ccc(Cl)cc2)CC1	11	38%
CCc1c(C)c(=N)c2ccccc2n1C	6	11% (inactive)
COc1cc2cc(C(=O)Nc3ccccc3)c(N)nc2cc1OC	10	69% (active)
Oc1ccc(-c2nc(-c3ccc4oc5ccc(-c6[nH]c(-c7ccc(O)cc7)nc6-c6ccccc6)cc5c4c3)c(-c3ccccc3)[nH]2)cc1	12	54% (active)
CCOc1ccc(CN2CCN(CC(O)COc3ccc(OCC(O)CN4CCN(Cc5ccc(OCC)cc5)CC4)cc3)CC2)cc1 (stereo unspecified)	70	83%
CN(C)c1ccc(C=Cc2nc(=O)c3ccccc3o2)cc1	2	0% (inactive)
Cc1ccnc(NC(c2cccc(OCc3ccccc3)c2)c2ccc3cccnc3c2O)c1 (stereo unspecified)	6	24% (inactive)
CCCN(CCC)CC(O)COc1ccccc1C(=O)Nc1ccccc1 (stereo unspecified)	57	98%
CCN(CC)CCNc1ccnc2cc3ccccc3cc12	9	6% (inactive)
CCOc1ccc2nc(C)cc(Nc3ccc(N(C)C)cc3)c2c1	4	3% (inactive)
COc1ccc(Nc2cc(C)nc(NCc3ccccc3)n2)cc1	> 5	67% (active)
Cc1cc(Nc2cccc(F)c2)nc(NCc2ccccc2)n1	11	73% (active)
Cc1ccc(-c2cc3nc4c(c(O)n3n2)CCCC4)cc1	-4	11% (inactive)
O=C(Nc1ccc(-c2nc3cc(NC(=O)c4ccc(Cl)cc4)ccc3[nH]2)cc1)c1ccc(Cl)cc1	-9	28%
OCCNc1nc(Nc2ccc(Cl)c(Cl)c2)nc2ccccc12	4	30%

SMILES	inhibition at 1.1 µM (hERG (Kv11.1, KCNH2) [1]) [%]	inhibition at 11.1 µM (hERG (Kv11.1, KCNH2) [2])
CCOC(=O)c1cnc2ccc(OC)cc2c1Nc1ccc(N2CCN(C)CC2)cc1	15	15% (inactive)
c1ccc2cc3c(Nc4ccc(N5CCOCC5)cc4)ccnc3cc2c1	38	87% (active)
CC(C)CCNCC(O)Cn1c2ccccc2c2ccccc21 (stereo unspecified)	2	61% (active)
CCOC(=O)c1cnc2ccc(Cl)cc2c1NCCCN(C)C	21	85% (active)
Cc1cc(C)c2c(c1)OCN(Cc1ccccc1Cl)C2	30	88% (active)
COc1cc(OC)c(N(C)C(=O)c2cc3c(s2)-c2ccccc2S(=O)(=O)C3)cc1Cl	3	41%
c1ccc2c(NCCc3c[nH]c4ccccc34)c3ccccc3nc2c1	64	109%
O=C1c2ccccc2C2=Nc3ccccc3SC(c3cccc(F)c3)C12 (stereo unspecified)	-4	4% (inactive)
CCOC(=O)c1cnc2c(C)cccc2c1Nc1ccc(C(C)=O)cc1	6	39%
Cc1cc(NC(=O)C2c3ccccc3C(=O)N(CC(C)C)C2c2cccs2)no1 (stereo unspecified)	4	11% (inactive)
O=C1CC(O)(C(F)(F)C(F)(F)F)Oc2ccccc21 (stereo unspecified)	-9	3% (inactive)
Cc1ccc(C2CC(C(F)(F)F)n3nc(C(=O)N4CCN(C(c5ccccc5)c5ccccc5)CC4)cc3N2)cc1 (stereo unspecified)	5	8% (inactive)
CCOc1cccc2sc(N(Cc3cccnc3)C(=O)C3CCCCC3)nc12	8	54% (active)
CC(C)c1ccc(CNCC(O)c2ccccc2)cc1 (stereo unspecified)	15	59% (active)
CC1CC(C)CN(C(=O)c2ccc(Cl)cc2Cl)C1 (stereo unspecified)	-3	5% (inactive)
OC(CNC1CCCC1)Cn1c2ccccc2c2ccccc21 (stereo unspecified)	8	55% (active)
Cc1ccc(NC(=O)Nc2cccc(Cl)c2)cc1F	-7	-1% (inactive)
CC(C)OCc1cc(CN2CCN(c3cccc(Cl)c3)CC2)c(O)c2ncccc12	65	100%
CSc1ccccc1C(=O)Nc1nc(-c2ccccn2)cs1	15	39%
CCCCc1ccc(NS(=O)(=O)c2cc3c4c(c2)CCN4C(=O)CC3)cc1	2	26%
CCCOCc1cc(CN2CCN(c3cccc(Cl)c3)CC2)c(O)c2ncccc12	3	106% (active)

SMILES	inhibition at 1.1 µM (hERG (Kv11.1, KCNH2) [1]) [%]	inhibition at 11.1 µM (hERG (Kv11.1, KCNH2) [2])
CCOc1ccccc1CNC(=O)C1c2ccccc2C(=O)N(CC(C)C)C1c1cccs1 (stereo unspecified)	12	84% (active)
Cc1ccc2c(C)nc(Nc3nc(C)cc(-c4ccccc4)n3)nc2c1	-1	4% (inactive)
c1ccc(CNc2nc(Nc3ccccc3)nc3ccccc23)cc1	17	69% (active)
CCOC(=O)c1ccc2[nH]c(-c3ccccc3)cc(=O)c2c1	-1	7% (inactive)
Clc1ccc2[nH]c3c(NCCCN4CCOCC4)ncnc3c2c1	29	89% (active)
COc1ccc(Nc2nc(NCc3ccccc3)c3ccccc3n2)cc1	0	53% (active)
Cc1cc(=O)oc2c1ccc1oc(C(=O)c3ccccc3)c(C)c12	-6	6% (inactive)
COc1ccc2c(c1OC)C(=O)N1c3ccccc3N=C(c3ccc(C)cc3)CC21 (stereo unspecified)	25	10% (inactive)
Oc1c(CN2CCN(c3ccccc3F)CC2)cc(Br)c2cccnc12	-9	46%
OC(CNCc1ccccc1)Cn1c2ccccc2c2ccccc21 (stereo unspecified)	41	94% (active)
CCOc1ccc2nc(C)cc(Nc3ccc(Br)cc3)c2c1	3	16% (inactive)
CCCCc1c(C)nc2c(OC)cccc2c1O	-9	4% (inactive)
COc1ccc(C)c2sc(N(Cc3cccnc3)C(=O)c3ccc(C#N)cc3)nc12	1	69% (active)
CCOc1c(Br)cc(C2C(C(=O)OC)=CN(C)C=C2C(=O)OC)cc1OC	3	21% (inactive)
Cc1cc(N2CCN(C3CCCC3)CC2)n2c(nc3ccccc32)c1C#N	-3	45%
Cc1ccc(Nc2nc(NCCO)c3ccccc3n2)cc1C	> 12	81% (active)
COc1ccc2sc(N(Cc3cccnc3)C(=O)c3ccc(C#N)cc3)nc2c1	14	82% (active)
COc1ccc(NC(=O)C2c3ccccc3C(=O)N(CC(C)C)C2c2cccs2)cc1 (stereo unspecified)	7	18% (inactive)
CCOC(=O)C1=CN(C)C=C(C(=O)OCC)C1c1cc(Br)c(OCC)c(OC)c1	16	54% (active)
C=CCc1c(C)nc2ccccc2c1O	11	11% (inactive)
CN1CCN(c2nc(Nc3ccc(O)cc3)nc3ccccc23)CC1	31	31%
